Test results reported in patent US8940720B2, “Macrocycles as factor XIa inhibitors” (Bristol-Myers Squibb Company, priority 2010, dated 2015).
pKi: −log10 of the molar value. Read-outs that look alike come from different tables or passages of the source.

Columns and labels:
[1] = from C=CCCC(=O)Nc1cc(NC(=O)OC)ccc1-c1nnc(Cl)cc1C(CC=C)NC(=O)OC(C)(C)C; rcm bond; 12-membered ring; Grubbs II (0.3 eq); DCM; 6.6 mM
[2] = molecular target: purified human Factor XIa (Homo sapiens (Human), UniProt P03951); assay: Factor XIa enzyme inhibition assay (chromogenic substrate S-2366); type: biochemical; settings: substrate S-2366, pH 7.4
Chain of purified human Factor XIa (P03951 388-625): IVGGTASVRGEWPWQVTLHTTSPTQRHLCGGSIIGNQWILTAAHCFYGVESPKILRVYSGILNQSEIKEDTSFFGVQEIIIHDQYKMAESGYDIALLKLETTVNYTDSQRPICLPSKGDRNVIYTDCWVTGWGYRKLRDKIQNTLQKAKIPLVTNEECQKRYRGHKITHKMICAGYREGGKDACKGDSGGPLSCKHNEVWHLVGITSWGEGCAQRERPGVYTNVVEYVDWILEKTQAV
Chain of purified human Factor XIa (P03951 19-387 partner): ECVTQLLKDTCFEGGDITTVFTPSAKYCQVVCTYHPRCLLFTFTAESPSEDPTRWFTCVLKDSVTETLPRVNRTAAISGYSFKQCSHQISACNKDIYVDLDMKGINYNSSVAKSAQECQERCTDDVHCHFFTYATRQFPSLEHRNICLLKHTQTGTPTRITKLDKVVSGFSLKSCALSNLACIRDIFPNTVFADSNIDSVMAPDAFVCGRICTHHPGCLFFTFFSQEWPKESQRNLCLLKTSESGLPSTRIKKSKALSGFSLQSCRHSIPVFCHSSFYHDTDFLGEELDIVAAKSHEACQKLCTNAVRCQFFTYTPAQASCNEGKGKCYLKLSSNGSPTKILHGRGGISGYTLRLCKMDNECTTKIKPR
Procedure: The effectiveness of compounds of the present invention as inhibitors of the coagulation Factors XIa, VIIa, IXa, Xa, XIIa, plasma kallikrein or thrombin, can be determined using a relevant purified serine protease, respectively, and an appropriate synthetic substrate. The rate of hydrolysis of the chromogenic or fluorogenic substrate by the relevant serine protease was measured both in the absence and presence of compounds of the present invention. […] A decrease in the rate of absorbance or fluorescence change in the presence of inhibitor is indicative of enzyme inhibition. Such methods are known to one skilled in the art. The results of this assay are expressed as the inhibitory constant, Ki.
Values of Ki were determined by allowing the protease to react with the substrate in the presence of the inhibitor. Reactions were allowed to go for periods of 20-180 minutes (depending on the protease) and the velocities (rate of absorbance or fluorescence change versus time) were measured. The following relationships were used to calculate Ki values: (vo−vs)/vs=I/(Ki(1+S/Km)) for a competitive inhibitor with one binding site; or vs/vo=A+((B−A)/1+((IC50/(I)n))); and Ki=IC50/(1+S/Km) for a competitive inhibitor where: […]

CC(C)(C)OC(=O)N[C@H]1CC=CCCCc2ccccc2-c2cn(COCC[Si](C)(C)C)c1n2
ring closure, yield of all isomers (from C=CCCCc1ccccc1-c1cn(COCC[Si](C)(C)C)c([C@H](CC=C)NC(=O)OC(C)(C)C)n1, rcm bond, Grubbs II, DCM, 0.97 mM, 40.0 °C, 1.0 h): 62.9%

CC(C)(C)OC(=O)N[C@H]1CC=CCCOc2ccccc2-c2cn(COCC[Si](C)(C)C)c1n2
ring closure, yield of all isomers (from C=CCCOc1ccccc1-c1cn(COCC[Si](C)(C)C)c([C@H](CC=C)NC(=O)OC(C)(C)C)n1, rcm bond, Grubbs II, DCM, 1.02 mM, 40.0 °C, 1.0 h): 29%

COC(=O)Nc1ccc2c(c1)CCCN(C)C(=O)C[C@H](NC(=O)OC(C)(C)C)c1nc-2cn1COCC[Si](C)(C)C
ring closure, yield of all isomers (from CNCCCc1cc(NC(=O)OC)ccc1-c1cn(COCC[Si](C)(C)C)c([C@H](CC(=O)O)NC(=O)OC(C)(C)C)n1, amide bond, BOP, DCM, 8.64 mM, 25.0 °C, 2.0 h): 39.4%

COC(=O)Nc1ccc2c(c1)NC(=O)C/C=C/CC(NC(=O)OC(C)(C)C)c1cc-2nc(C)n1 (stereo not drawn)
ring closure, yield of all isomers (from C=CCC(=O)Nc1cc(NC(=O)OC)ccc1-c1cc(C(CC=C)NC(=O)OC(C)(C)C)nc(C)n1, rcm bond, Grubbs II, DCM, 0.5 mM, 40.0 °C, 4.0 h): 22%

COC(=O)Nc1ccc2c(c1)NC(=O)CC/C=C/CC(NC(=O)OC(C)(C)C)c1cc(Cl)nnc1-2 (stereo not drawn)
ring closure, yield of all isomers (from C=CCCC(=O)Nc1cc(NC(=O)OC)ccc1-c1nnc(Cl)cc1C(CC=C)NC(=O)OC(C)(C)C, rcm bond, Grubbs II, DCM, 6.6 mM, 40.0 °C, 1.0 h): 56% | ring closure, isolated yield [1]: 56%

COC(=O)Nc1ccc2c(c1)NC(=O)CCC(C)=CC[C@H](NC(=O)OC(C)(C)C)c1nc-2cn1COCC[Si](C)(C)C
ring closure, yield of all isomers (from C=CC[C@H](NC(=O)OC(C)(C)C)c1nc(-c2ccc(NC(=O)OC)cc2NC(=O)CCC(=C)C)cn1COCC[Si](C)(C)C, rcm bond, Grubbs II, DCE, 105.0 mM, 120.0 °C, 0.33 h): 34.6%

COC(=O)Nc1ccc2c(c1)NC(=O)CCC=CC[C@H](NC(=O)OC(C)(C)C)c1cc-2ccn1
ring closure, yield of all isomers (from C=CCCC(=O)Nc1cc(NC(=O)OC)ccc1-c1ccnc([C@H](CC=C)NC(=O)OC(C)(C)C)c1, rcm bond, Grubbs II, DCM, 0.99 mM, 40.0 °C, 1.5 h): 75%

COC(=O)Nc1ccc2c(c1)NC(=O)CCN(C(=O)OC(C)(C)C)C[C@H](NC(=O)OCc1ccccc1)c1nc-2cn1COCC[Si](C)(C)C
ring closure, yield of all isomers (from COC(=O)Nc1ccc(-c2cn(COCC[Si](C)(C)C)c([C@H](CN(CCC(=O)O)C(=O)OC(C)(C)C)NC(=O)OCc3ccccc3)n2)c(N)c1, amide bond, BOP, DCM, 0.93 mM, 25.0 °C, 5.0 h): 87%

COC(=O)Nc1ccc2c(c1)N[C@@H](C(=O)OC)CC=CC[C@H](NC(=O)OC(C)(C)C)c1nc-2cn1COCC[Si](C)(C)C
ring closure, yield of all isomers (from C=CC[C@H](NC(=O)OC(C)(C)C)c1nc(-c2ccc(NC(=O)OC)cc2N[C@H](CC=C)C(=O)OC)cn1COCC[Si](C)(C)C, rcm bond, Grubbs II, DCE, 40.0 mM, 120.0 °C, 0.33 h): 30%

COC(=O)c1ccc2c(c1)OCCNC(=O)CC(NC(=O)OC(C)(C)C)c1cc-2nnc1Cl (stereo not drawn)
ring closure, yield of all isomers (from COC(=O)c1ccc(-c2cc(C(CC(=O)O)NC(=O)OC(C)(C)C)c(Cl)nn2)c(OCCN)c1, amide bond, BOP, DCM, 1.28 mM, 25.0 °C, 2.5 h): 15.3%

CC(C)(C)OC(=O)N[C@H]1CC=CCCC(=O)Nc2ccccc2C2=NN=C1O2 (mixture of isomers)
ring closure, yield of all isomers (from C=CCCC(=O)Nc1ccccc1-c1nnc([C@H](CC=C)NC(=O)OC(C)(C)C)o1, rcm bond, Grubbs II, DCM, 4.8 mM, 75.0 °C, 1.5 h): 27%

COC(=O)Nc1ccc2c(c1)NC(=O)CCCC[C@H](NC(=O)c1c(F)cc(C)cc1F)c1cc-2ccn1 [II-4]
pKi [2]: 6.95

COC(=O)Nc1ccc2c(c1)NC(=O)CCCCC(NC(=O)/C=C/c1cc(Cl)ccc1-n1cnnn1)c1cc-2nc(C)n1 (stereo not drawn) [II-10]
pKi [2]: 7.64

COC(=O)Nc1ccc2c(c1)NC(C(F)(F)F)CCCC[C@H](NC(=O)C1CCC(CN)CC1)c1cc-2ccn1 (stereo partly drawn) [II-13]
pKi [2]: > 8.30

COC(=O)Nc1ccc2c(c1)NC(C(F)(F)F)CCCC[C@H](NC(=O)c1ccc(C(=N)N)cc1)c1cc-2ccn1 (stereo partly drawn) [II-15]
pKi [2]: 5.38

CCOC(=O)C1CCCC[C@H](NC(=O)/C=C/c2cc(Cl)ccc2-n2cnnn2)c2cc(ccn2)-c2ccc(NC(=O)OC)cc2N1 (stereo partly drawn) [II-18]
pKi [2]: 6.24

COC(=O)Nc1ccc2c(c1)N[C@@H](C(=O)N1CCN(C)CC1)CCCC[C@H](NC(=O)/C=C/c1cc(Cl)ccc1-n1cnnn1)c1cc-2ccn1 [II-35]
pKi [2]: > 8.30

CCOC(=O)[C@@H]1CCCC[C@H](NC(=O)/C=C/c2c(-n3cnnn3)ccc(Cl)c2F)c2cc(ccn2)-c2ccc(NC(=O)OCCOC)cc2N1 [II-43]
pKi [2]: 6.03

COC(=O)Nc1ccc2c(c1)N[C@@H](C(=O)NCc1ccccn1)CCCC[C@H](NC(=O)/C=C/c1cc(Cl)ccc1-n1cnnn1)c1cncc-2c1 [II-58]
pKi [2]: 7.68

CCOC(=O)C1CCCCC(NC(=O)/C=C/c2cc(Cl)ccc2-n2cnnn2)c2cc(cc(=O)[nH]2)-c2ccc(NC(=O)OC)cc2N1 (stereo not drawn) [II-62]
pKi [2]: > 8.30
